Experimental data taken from patent publication US10908141B2, “Methods and kits for detecting non-luminescent or weakly luminescent metals” (New York University, priority 2012, dated 2021).
Where “and” joins values, the source holds several entries; their conditions need not be identical. Equal values may be shown once.

Tests used:
[1] = Diffusivity by dynamic light scattering (DLS); assay type: physicochemical
[2] = Relaxivity r1
[3] = in vivo; cited from earlier work
[4] = Absorption and fluorescence spectroscopy (plate reader / nanodrop); assay type: physicochemical
[5] = Xylenol orange determination of free Gd3+ after chelation; assay type: physicochemical
Description: When xylenol orange coordinates Gd^3+ ion, absorption at 573 decreases relative to that at 433.
For determination of free Gd^3+ in solution after chelation. 3 mg xylenol orange was dissolved in 50 mM acetic acid pH 5.8, and 90 μL added to each well of a clear 96 well plate. Triplicate samples of 10 μL 10^−3M cs124-DTPA were added to each well, and increasing amounts of […] titrated in. Absorption was read at 573 and 433, against a standard of known Gd^3+ concentration.

[6] = Stability of the chelate in solution over time (Tb/Gd metal exchange); assay type: physicochemical; details: 5, 30, and 60 minutes
Text: To determine the stability of the chelate in solution as a function of time, readings were made at different time points. If there is an exchange of Tb with Gd on the sensitized chelate, then a dramatic increase in signal should be observed. The intensity of cs124-DTPA-Tb is 10000 fold higher than the equivalent concentration of cs124-DTPA-Gd.

[7] = mouse plasma, 0.1 mmol/kg via saphenous vein, bi-exponential fit

| Compound | Diffusivity D [1] | Relaxivity r1 [2] | Distribution half-life [3] | Distribution time (manufacturer's data) [3] | Elimination time (manufacturer's data) [3] | Plasma clearance half-life [3] | Absorbance Amax [4] | Fluorescence Emmax [4] | Fluorescence Exmax [4] | Relaxivity compared with DTPA-Gd [2] | Free Gd3+ ion concentration ([5]; incubated with 50 mM xylenol orange) | Concentration of chelated complex above which free Gd3+ is detectable ([5]; incubated with xylenol orange in 50 mM acetic acid pH 5.8) | Change of intensity over time (metal exchange between sensitized and unsensitized chelates) [6] | Characteristic distribution time [7] | Elimination time [7] |
| --- | --- | --- | --- | --- | --- | --- | --- | --- | --- | --- | --- | --- | --- | --- | --- |
| [Gd+3] [Gd3+, reference compound] | 8.0 × 10^−6 cm^2/s | 9.16 ± 0.96 M⁻¹ ms⁻¹ | – | – | – | – | – | – | – | – | – | – | – | – | – |
| O=C([O-])CN(CCN(CC(=O)[O-])CC(=O)O)CCN(CC(=O)[O-])CC(=O)O.[Gd+3] [Magnevist ®, gadolinium-diethylenetriaminepentaacetic acid] | – | 3.4 M⁻¹ ms⁻¹ | 12 min | 12.2 ± 7.8 min | 96.0 ± 7.8 min | approximately 81 min | – | – | – | – | – | – | – | – | – |
| Cc1cc(=O)[nH]c2cc(N)ccc12 [cs124, carbostyril124, reference compound] | – | – | – | – | – | – | 328 nm | 370 nm | 310 nm | – | – | – | – | – | – |
| carbostyril-124-diethylenetriaminepentaacetic acid-Gadolinium [cs124-DTPA-Gd] | 2.5 × 10^−6 cm^2/s | 3.32 ± 1.4 M⁻¹ ms⁻¹ | – | – | – | – | 328 nm | 375 nm | 341 nm | the same as that of DTPA-Gd | 0.06% | above 1.75 mM | No significant change | 13.2 ± 0.543 min and 14 min | 92.2 ± 11.7 min and 90 min |
